# Source: publication PMC4807533, “Specific tracking of xylan using fluorescent-tagged carbohydrate-binding module 15 as molecular probe” (Biotechnology for Biofuels, 2016)
# Where two headings read alike, the source gives them in different places.
# Biological target: T1, OC15 (mOrange2-CBM15 fusion probe) (Cellvibrio japonicus, UniProt Q59675)
# T1 construct: gene xyn10C; CBM15 domain of xylanase Xyn10C, C-terminal; N-terminal His6-mOrange2 reporter, tags kept; single Gly linker; synthetic gene, pET11a, E. coli BL21-Gold(DE3)pLysS; primers imply CBM15 begins VAAS and ends at stop after EAYSAN
# Assay: isothermal titration calorimetry
# Format: binding
# Settings: 20 mM Tris-HCl pH 7.5, 20 mM NaCl, 5 mM CaCl2, 25 °C
# Text: isothermal titration calorimetry on OC15 (mOrange2-CBM15 fusion probe)
# T1 sequence (Q59675 86-247): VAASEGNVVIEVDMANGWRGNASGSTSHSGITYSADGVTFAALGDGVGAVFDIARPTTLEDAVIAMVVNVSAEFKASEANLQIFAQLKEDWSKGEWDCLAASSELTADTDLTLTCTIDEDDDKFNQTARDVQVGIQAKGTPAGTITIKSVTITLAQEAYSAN
"Kd (cellohexaose of 90 % purity, read-out: K a × 10^3 (M^-1) (converted)) [µM]","Kd (cellohexaose of 90 % purity, read-out: K d) [µM]",Kd (read-out: K a × 10^3 (M^-1) (converted)) [µM],Kd (read-out: K d) [µM],Structure (SMILES)
476,479,–,–,OC[C@H]1O[C@@H](O[C@H]2[C@H](O)[C@@H](O)[C@H](O[C@H]3[C@H](O)[C@@H](O)[C@H](O[C@H]4[C@H](O)[C@@H](O)[C@H](O[C@H]5[C@H](O)[C@@H](O)[C@H](O[C@H]6[C@H](O)[C@@H](O)C(O)O[C@@H]6CO)O[C@@H]5CO)O[C@@H]4CO)O[C@@H]3CO)O[C@@H]2CO)[C@H](O)[C@@H](O)[C@@H]1O (stereo partly shown) [cellohexaose]
–,–,29.4,29.4,OC1OC[C@@H](O[C@@H]2OC[C@@H](O[C@@H]3OC[C@@H](O[C@@H]4OC[C@@H](O[C@@H]5OC[C@@H](O[C@@H]6OC[C@@H](O)[C@H](O)[C@H]6O)[C@H](O)[C@H]5O)[C@H](O)[C@H]4O)[C@H](O)[C@H]3O)[C@H](O)[C@H]2O)[C@H](O)[C@H]1O (stereo partly shown) [xylohexaose]
